Here are results for 24 compounds from patent publication US20240228488A1 (TAKEDA PHARMACEUTICAL COMPANY LIMITED, priority 2021, published 2024).

A value given as a limit tells only on which side of the number the result lay.

Chain of human activated kallikrein enzyme (P03952 391-638 limits assumed): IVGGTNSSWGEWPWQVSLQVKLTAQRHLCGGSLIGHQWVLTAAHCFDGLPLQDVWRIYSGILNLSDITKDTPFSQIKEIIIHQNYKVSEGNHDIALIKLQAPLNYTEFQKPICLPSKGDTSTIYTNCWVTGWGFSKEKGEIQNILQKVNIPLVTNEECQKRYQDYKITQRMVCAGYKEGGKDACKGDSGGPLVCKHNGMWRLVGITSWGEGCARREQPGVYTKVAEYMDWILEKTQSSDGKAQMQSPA
Chain of human activated kallikrein enzyme (P03952 20-390 partner limits assumed): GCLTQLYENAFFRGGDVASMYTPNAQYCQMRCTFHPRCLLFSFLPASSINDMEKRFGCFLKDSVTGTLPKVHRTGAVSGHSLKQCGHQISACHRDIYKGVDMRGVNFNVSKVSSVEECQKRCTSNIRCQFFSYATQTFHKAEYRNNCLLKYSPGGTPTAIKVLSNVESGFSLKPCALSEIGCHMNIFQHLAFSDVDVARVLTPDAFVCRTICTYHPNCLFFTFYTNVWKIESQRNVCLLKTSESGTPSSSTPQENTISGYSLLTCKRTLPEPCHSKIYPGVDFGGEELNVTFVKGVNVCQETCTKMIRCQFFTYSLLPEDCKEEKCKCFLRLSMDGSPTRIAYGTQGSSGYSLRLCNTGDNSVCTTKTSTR

One assay addresses human activated kallikrein enzyme (Homo sapiens, UniProt P03952). Briefly: Plasma kallikrein inhibition, fluorogenic PFR-AMC substrate, 500 pM activated kallikrein format. Conditions: 500 pM activated kallikrein, 300 uM PFR-AMC, 30 min preincubation, 10 min reaction; read-out: Primary Dose Response Assay: Average EC50. Format: biochemical. As to the method: Compounds were evaluated for inhibition of the human activated kallikrein enzyme in two formats of an assay employing a fluorogenic peptide substrate. In one assay format, the concentrations of reagents were as follows: 20 mM Tris pH 7.5, 1 mM EDTA, 150 mM sodium chloride, 0.1% PEG-400, 0.1% Triton X-100, 500 pM activated kallikrein enzyme, 300 uM Pro-Phe-Arg-7-amido-4-methylcoumarin (PFR-AMC) substrate. Prior to reaction initiation with substrate, enzyme and inhibitors were preincubated for 30 min at room temperature. After initiation with substrate, reactions were incubated for 10 min at room temperature and fluorescence emission at 460 nm from 380 nm excitation measured with a microplate reader. In another assay format, the concentrations of reagents were as follows: 20 mM Tris pH 7.5, 1 mM EDTA, 150 mM sodium chloride, 0.1% PEG-400, 0.1% Triton X-100, 5 pM activated kallikrein enzyme, 300 uM PFR-AMC substrate. Prior to reaction initiation with substrate, enzyme and inhibitors were preincubated for 30 min at room temperature. After initiation with substrate, reactions were incubated for 18 hr at room temperature and fluorescence emission at 460 nm from 380 nm excitation measured with a microplate reader.
Table 49 provides the results of the assay in the format with 500 pM activated kallikrein assay. For the compounds listed in Table 49, the EC50 values are reported according to the following ranges: A≤1.0 nM; 1.0 nM<B≤10 nM; 10 nM<C≤100 nM; 100 nM<D≤1000 nM; 1000 nM<E≤6000 nM; 6000 nM<F.
Table 51 provides comparative plasma kallikrein inhibition potency in the assay format with 500 pM activated kallikrein assay (described in detail in a preceding example). For the compounds listed in Table 51, the EC50 values are reported according to the following ranges: A≤1.0 nM; 1.0 nM<B≤10 nM; 10 nM<C≤100 nM; 100 nM<D≤1000 nM; 1000 nM<E≤6000 nM; 6000 nM<F.
On to `CC1CCC(=O)N1c1cc(C2CC2)cn2cc(CNc3ccnc(NC(=O)[C@H]4C[C@@H]4c4cccc(Cl)c4)c3)nc12` (mixture of isomers) [Example 89, (1S,2S)-2-(3-chlorophenyl)-N-(4-(((6-cyclopropyl-8-(2-methyl-5-oxopyrrolidin-1-yl)imidazo[1,2-a]pyridin-2-yl)methyl)amino)pyridin-2-yl)cyclopropane-1-carboxamide], for which the concentration for a half-maximal effect (EC50) is under 1 nM. The same measure, in the same setting: with `O=C(Nc1cc(NCc2cn3cc(C4CC4)ccc3n2)ncn1)[C@H]1C[C@@H]1c1cccc(Cl)c1F` (racemic) [Example 43, rac-(1S*,2S*)-2-(3-chloro-2-fluorophenyl)-N-(6-(((6-cyclopropylimidazo[1,2-a]pyridin-2-yl)methyl)amino)pyrimidin-4-yl)cyclopropane-1-carboxamide] the figure was 10 to 100 nM; with `O=C(Nc1cc(NCc2cn3cc(C4CC4)ccc3n2)ncn1)[C@H]1C[C@@H]1c1cc(Cl)ccc1F` (racemic) [Example 44, rac-(1S*,2S*)-2-(5-chloro-2-fluorophenyl)-N-(6-(((6-cyclopropylimidazo[1,2-a]pyridin-2-yl)methyl)amino)pyrimidin-4-yl)cyclopropane-1-carboxamide], 10 to 100 nM; with `O=C(Nc1cc(NCc2cn3cc(C4CC4)ccc3n2)ncn1)[C@H]1C[C@@H]1c1ccc(F)c(Cl)c1` (racemic) [Example 45, rac-(1S*,2S*)-2-(3-chloro-4-fluorophenyl)-N-(6-(((6-cyclopropylimidazo[1,2-a]pyridin-2-yl)methyl)amino)pyrimidin-4-yl)cyclopropane-1-carboxamide], 100 to 1000 nM.

As for `O=C(Nc1cc(NCc2cn3cc(C4CC4)ccc3n2)ncn1)[C@H]1C[C@@H]1c1cc(F)cc(Cl)c1` (racemic) [Example 46, rac-(1S*,2S*)-2-(3-chloro-5-fluorophenyl)-N-(6-(((6-cyclopropylimidazo[1,2-a]pyridin-2-yl)methyl)amino)pyrimidin-4-yl)cyclopropane-1-carboxamide], the EC50 lay in the range of 10 to 100 nM. On to `COc1ccc(Cl)cc1[C@H]1C[C@@H]1C(=O)Nc1cc(NCc2cn3cc(C4CC4)ccc3n2)ncn1` (racemic) [Example 47, rac-(1S*,2S*)-2-(5-chloro-2-methoxyphenyl)-N-(6-(((6-cyclopropylimidazo[1,2-a]pyridin-2-yl)methyl)amino)pyrimidin-4-yl)cyclopropane-1-carboxamide], for which the EC50 fell in the range of 100 to 1000 nM. Still for that read-out and setting: then `N#Cc1ccc(Cl)cc1[C@H]1C[C@@H]1C(=O)Nc1cc(NCc2cn3cc(C4CC4)ccc3n2)ncn1` (racemic) [Example 48, rac-(1S*,2S*)-2-(5-chloro-2-cyanophenyl)-N-(6-(((6-cyclopropylimidazo[1,2-a]pyridin-2-yl)methyl)amino)pyrimidin-4-yl)cyclopropane-1-carboxamide], with 1 to 10 nM; and `O=C(Nc1cc(NCc2cn3cc(C4CC4)ccc3n2)ncn1)[C@H]1C[C@@H]1c1cc(Cl)ccc1C(F)F` (racemic) [Example 51, rac-(1S*,2S*)-2-(5-chloro-2-(difluoromethyl)phenyl)-N-(6-(((6-cyclopropylimidazo[1,2-a]pyridin-2-yl)methyl)amino)pyrimidin-4-yl)cyclopropane-1-carboxamide], with 10 to 100 nM; and `O=C(Nc1cc(NCc2cn3cc(C4CC4)ccc3n2)ncn1)[C@H]1C[C@@H]1c1cc(Cl)ccc1C(F)(F)F` (racemic) [Example 52, rac-(1S*,2S*)-2-(5-chloro-2-(trifluoromethyl)phenyl)-N-(6-(((6-cyclopropylimidazo[1,2-α]pyridin-2-yl)methyl)amino)pyrimidin-4-yl)cyclopropane-1-carboxamide], with 100 to 1000 nM.

With `COc1cccc([C@H]2C[C@@H]2C(=O)Nc2cc(NCc3cn4cc(C5CC5)ccc4n3)ncn2)c1` (racemic) [Example 53, rac-(1S*,2S*)-N-(6-(6-cyclopropylimidazo[1,2-a]pyridin-2-yl)methyl)amino)pyrimidin-4-yl)-2-(3-methoxyphenyl)cyclopropane-1-carboxamide], the EC50 was 100 to 1000 nM. The same measure, in the same setting: then `O=C(Nc1cc(NCc2cn3cc(C4CC4)ccc3n2)ncn1)[C@H]1C[C@@H]1c1cccc(Br)c1` (racemic) [Example 54, rac-(1S*,2S*)-2-(3-bromophenyl)-N-(6-(((6-cyclopropylimidazo[1,2-a]pyridin-2-yl)methyl)amino)pyrimidin-4-yl)cyclopropane-1-carboxamide], with 10 to 100 nM; and `O=C(Nc1cc(NCc2cn3cc(C4CC4)ccc3n2)ncn1)[C@H]1C[C@@H]1c1cccc(Cl)c1` (racemic) [Example 55, rac-(1S*,2S*)-2-(3-chlorophenyl)-N-(6-(((6-cyclopropylimidazo[1,2-a]pyridin-2-yl)methyl)amino)pyrimidin-4-yl)cyclopropane-1-carboxamide], with 1 to 10 nM. Same read-out and setting: then `O=C(Nc1cc(NCc2cn3cc(C4CC4)cc(N4CCCC4=O)c3n2)ncn1)[C@H]1C[C@@H]1c1cccc(Cl)c1` (racemic) [Example 58, rac-(1S*,2S*)-2-(3-chlorophenyl)-N-(6-(((6-cyclopropyl-8-(2-oxopyrrolidin-1-yl)imidazo[1,2-α]pyridin-2-yl)methyl)amino)pyrimidin-4-yl)cyclopropane-1-carboxamide], with 1 to 10 nM. On to `O=C(Nc1cc(NCc2cn3cc(C4CC4)cc(Cl)c3n2)ncn1)[C@H]1C[C@@H]1c1cccc(Cl)c1` (racemic) [Example 59, rac-(1S*,2S*)-N-(6-(((8-chloro-6-cyclopropylimidazo[1,2-α]pyridin-2-yl)methyl)amino)pyrimidin-4-yl)-2-(3-chlorophenyl)cyclopropane-1-carboxamide], for which the concentration giving a half-maximal response (EC50) was in the range of 1 to 10 nM. In the case of `CCOC(=O)CCc1cc(C2CC2)cn2cc(CNc3cc(NC(=O)[C@H]4C[C@@H]4c4cccc(Cl)c4)ncn3)nc12` (racemic) [Example 61, rac-ethyl 3-(2-(((6-((1S*,2S*)-2-(3-chlorophenyl)cyclopropane-1-carboxamido)pyrimidin-4-yl)amino)methyl)-6-cyclopropylimidazo[1,2-α]pyridin-8-yl)propanoate], the concentration for a half-maximal effect (EC50) lay in the range of 1 to 10 nM. Still for that read-out and setting: then `CC1(C)CC(=O)N(c2cc(C3CC3)cn3cc(CNc4cc(NC(=O)[C@H]5C[C@@H]5c5cccc(Cl)c5)ncn4)nc23)C1` (racemic) [Example 66, rac-(1S*,2S*)-2-(3-chlorophenyl)-N-(6-(((6-cyclopropyl-8-(4,4-dimethyl-2-oxopyrrolidin-1-yl)imidazo[1,2-a]pyridin-2-yl)methyl)amino)pyrimidin-4-yl)cyclopropane-1-carboxamide], with 1 to 10 nM.

Staying with this assay, now noted: comparative compounds, 500 pM activated kallikrein format; read-out: Primary Dose Response Assay: Average EC50.
On to `O=C(NCc1cccc(Cl)c1)c1cnn(Cc2cn3cc(C4CC4)ccc3n2)c1`, for which the concentration for a half-maximal effect (EC50) was in the range of 1000 to 6000 nM. Still for that read-out and setting: with `O=C(NCCc1cccc(Br)c1)c1cnn(Cc2cn3cc(C4CC4)ccc3n2)c1` the figure was 1000 to 6000 nM; with `O=C(NC1CC1Cc1cccc(Cl)c1)c1cnn(Cc2cn3cc(C4CC4)ccc3n2)c1` (stereo not drawn), 1000 to 6000 nM.

Regarding `O=C(Cc1ncn2ccc(Cl)cc12)Nc1cc(NCc2cn3cc(C4CC4)ccc3n2)ncn1`, the concentration giving a half-maximal response (EC50) lay in the range of 1 to 10 nM. For the compound `Clc1cccc([C@H]2C[C@@H]2CNc2cc(NCc3cn4cc(C5CC5)ccc4n3)ncn2)c1`, the EC50 was in the range of 100 to 1000 nM. On the same count and under the same terms, with `O=c1ccc(NCc2cn3cc(C4CC4)ccc3n2)cn1NC[C@H]1C[C@@H]1c1cccc(Cl)c1` the figure was 1000 to 6000 nM; with `O=C(N[C@H]1C[C@@H]1c1cccc(Cl)c1)c1cc(NCc2cn3cc(C4CC4)ccc3n2)ncn1`, 1000 to 6000 nM; with `O=C(Nc1cc(NCc2cn3cc(C4CC4)ccc3n2)ncn1)NC1CC1c1cccc(Cl)c1` (stereo not drawn), 1000 to 6000 nM.
